Test results: publication PMC11208146, “Molecular basis for transposase activation by a dedicated AAA+ ATPase” (Nature, 2024)

Legend:
Type in all cases: binding
[1] = biological target: T1, IstA–IstB–STC holo-transpososome (Geobacillus stearothermophilus, UniProt Q45618+Q45619, Q45619:E167Q, form not given); experiment: cryo-EM structure, […] Å; conditions: assembled with 1 mM ATP, 5 mM MgCl2, pH 7.5, strand-transfer DNA; internal IstB-IstB sites (e.g. 1b)
T1 construct: full-length IstB (His6-MBP cleaved) with full-length IstA (C-terminal MBP-His6 cleaved by TEV), E. coli; in the structure one IstA tetramer, two IstB decamers and strand-transfer DNA, about 1 MDa; IstA Glu209/Tyr213 contact the nucleotide of IstB 1a/1a'

IstB = biological target: T2, IstB (Geobacillus stearothermophilus, UniProt Q45619); experiment: cryo-EM structure, […] Å; conditions: 5 mM MgCl2, 1 mM ATP, pH 7.5, 60 bp target DNA; eight complete sites at IstB-IstB interfaces
T2 construct: full-length; His6-MBP tag cleaved (PreScission); E. coli BL21 codon-plus (DE3) RIL; pentamer of dimers (decamer) on 60 bp target DNA

[2] = biological target: T1, IstA–IstB–STC holo-transpososome; experiment: cryo-EM structure, focused refinement of core, […] Å; conditions: assembled with 1 mM ATP, 5 mM MgCl2, pH 7.5, strand-transfer DNA; IstB monomers 1a and 1a' contacting IstA

| Compound | cryo-EM structure, 3.6 Å [1] | cryo-EM structure, 3.2 Å (IstB) | cryo-EM structure, focused refinement of core, 3.2 Å [2] |
| --- | --- | --- | --- |
| Nc1ncnc2c1ncn2[C@@H]1O[C@H](COP(=O)(O)OP(=O)(O)OP(=O)(O)O)[C@@H](O)[C@H]1O [ATP] | other subunits (1b, bound to ATP, shown on the right for comparison) | Close inspection of the EM map showed clear density maps for ATP in all binding pockets |  |
| Nc1ncnc2c1ncn2[C@@H]1O[C@H](COP(=O)(O)OP(=O)(O)O)[C@@H](O)[C@H]1O [ADP] |  |  | revealed that the density in these active sites is most consistent with ADP |
